Tests used:
Type in all cases: cell-based
[1] = system: Enterohemorrhagic Escherichia coli O111; experiment: Permeability of pathogenic microbes when treatment sheets were laid on vomit; conditions: 1000 ppm available chlorine
Text: (§1) 1) Chlorous acid aqueous solution formulation (see Example 1: Table 11) Treatment sheet (material: 100% cotton): (about 27×40 cm) *Impregnated at a ratio of weight of treatment sheet (g): amount of liquid (ml)=1:3 2) Imitation vomit (hereinafter, referred to as vomit) Miso solution: adjusted to pH 2 with hydrochloric acid 3) Test Microbes that were used E. coli: Escherichia coli IF03927 Staphylococcus aureus: Staphylococcus aureus IF0 12732 Thermoduric Microbes (Bacillus cereus): Bacillus cereus NBRC15305 Microbes of the genus Salmonella: Salmonella Enteritidis IF03313 Enterohemorrhagic Escherichia coli 0157: Escherichia coli 0157 Enterohemorrhagic Escherichia coli 0111: Escherichia coli 0111 Enterohemorrhagic Escherichia coli 026: Escherichia coli O26
(§2) Permeability of pathogenic microbes into a treatment sheet when treating vomit was examined to compare effects of preventing secondary contamination. (1) Imitation vomit is spread in an area about the size of an A4 sheet. (2) 30 agent solution-containing treatment sheets were laid thereon and left standing for 10 minutes. (3) Treatment sheets were removed one at a time from the top. After diluting with saline, the sample was spread in a petri dish and cultured.

[2] = system: Enterohemorrhagic Escherichia coli O157; experiment: as above; conditions: 1000 ppm available chlorine
Text: as §1, §2

[3] = system: Enterohemorrhagic Escherichia coli O26; experiment: as above; conditions: 1000 ppm available chlorine
Text: as §1, §2

[4] = system: E. coli: Escherichia coli IF03927; experiment: Sterilizing effect on floor surface after wiping off imitation vomit, tatami mattress; conditions: 1000 ppm available chlorine
Text: (§3) 1) Chlorous acid aqueous solution formulation (see Example 1: Table 11) Treatment sheet (material: 100% cotton): (about 27×40 cm) *Impregnated at a ratio of weight of treatment sheet (g): amount of liquid (ml)=1:3 2) Imitation vomit Miso solution: adjusted to pH of 2 with hydrochloric acid 3) Test Microbes that were Used E. coli: Escherichia coli IF03927 Staphylococcus aureus: Staphylococcus aureus IF0 12732 Thermoduric Microbes (Bacillus cereus): Bacillus cereus NBRC15305 Microbes of the genus Salmonella: Salmonella Enteritidis IF03313 Enterohemorrhagic Escherichia coli O157: Escherichia coli O157 Enterohemorrhagic Escherichia coli O111: Escherichia coli O111 Enterohemorrhagic Escherichia coli O26: Escherichia coli O26
(§4) (1) Imitation vomit was spread in an area about the size of an A4 sheet. (2) 5 dry sheets were laid thereon. (3) An agent solution was poured on the dry sheets to wipe off the imitation vomit. (4) A cotton swab was soaked with sterile saline. A portion where imitation vomit was spread was scrubbed with the cotton swab to collect microbes remaining on the floor. After suspending in saline, the solution was spread on a petri dish and cultured. The number of each of the microbes was measured. (5) Test operations 3 and 4 were repeated a total of 7 times (repeated until the imitation vomit could be removed completely).

[5] = system: Enterohemorrhagic Escherichia coli O111; experiment: as above; conditions: 1000 ppm
Text: as §3, §4

[6] = system: Enterohemorrhagic Escherichia coli O157; experiment: as above; conditions: 1000 ppm available chlorine
Text: as §3, §4

[7] = system: Enterohemorrhagic Escherichia coli O26; experiment: as above; conditions: 1000 ppm available chlorine
Text: as §3, §4

[8] = system: Staphylococcus aureus IF0 12732; experiment: as above; conditions: 1000 ppm available chlorine
Text: as §3, §4

OCl [Sodium Hypochlorite, sodium hypochlorite]
Microbe count, 1 sheet laid on imitation vomit ([1]; Day 0 at 25° C.): <10
Microbe count, 2 sheets laid on imitation vomit ([1]; Day 0 at 25° C.): <10
Microbe count, 3 sheets laid on imitation vomit ([1]; Day 0 at 25° C.): <10
Microbe count, 4 sheets laid on imitation vomit ([1]; Day 0 at 25° C.): <10
Microbe count, 5 sheets laid on imitation vomit ([1]; Day 0 at 25° C.): <10
Microbe count, 6 sheets laid on imitation vomit ([1]; Day 0 at 25° C.): <10
Microbe count, 8 sheets laid on imitation vomit ([1]; Day 0 at 25° C.): <10
Microbe count, 10 sheets laid on imitation vomit ([1]; Day 0 at 25° C.): <10
Microbe count, 20 sheets laid on imitation vomit ([1]; Day 0 at 25° C.): <10
Microbe count, 30 sheets laid on imitation vomit ([1]; Day 0 at 25° C.): <10
Microbe count, 1 sheet laid on imitation vomit ([1]; Day 7 at 25° C.): >10^6
Microbe count, 2 sheets laid on imitation vomit ([1]; Day 7 at 25° C.): >10^6
Microbe count, 3 sheets laid on imitation vomit ([1]; Day 7 at 25° C.): >10^6
Microbe count, 4 sheets laid on imitation vomit ([1]; Day 7 at 25° C.): >10^6
Microbe count, 5 sheets laid on imitation vomit ([1]; Day 7 at 25° C.): >10^6
Microbe count, 6 sheets laid on imitation vomit ([1]; Day 7 at 25° C.): >10^6
Microbe count, 8 sheets laid on imitation vomit ([1]; Day 7 at 25° C.): >10^6
Microbe count, 10 sheets laid on imitation vomit ([1]; Day 7 at 25° C.): >10^6
Microbe count, 20 sheets laid on imitation vomit ([1]; Day 7 at 25° C.): >10^6
Microbe count, 30 sheets laid on imitation vomit ([1]; Day 7 at 25° C.): >10^6
Microbe count, 1 sheet laid on imitation vomit ([2]; Day 0 at 25° C.): <10
Microbe count, 2 sheets laid on imitation vomit ([2]; Day 0 at 25° C.): <10
Microbe count, 3 sheets laid on imitation vomit ([2]; Day 0 at 25° C.): <10
Microbe count, 4 sheets laid on imitation vomit ([2]; Day 0 at 25° C.): <10
Microbe count, 5 sheets laid on imitation vomit ([2]; Day 0 at 25° C.): <10
Microbe count, 6 sheets laid on imitation vomit ([2]; Day 0 at 25° C.): <10
Microbe count, 8 sheets laid on imitation vomit ([2]; Day 0 at 25° C.): <10
Microbe count, 10 sheets laid on imitation vomit ([2]; Day 0 at 25° C.): <10
Microbe count, 20 sheets laid on imitation vomit ([2]; Day 0 at 25° C.): <10
Microbe count, 30 sheets laid on imitation vomit ([2]; Day 0 at 25° C.): <10
Microbe count, 1 sheet laid on imitation vomit ([2]; Day 7 at 25° C.): >10^6
Microbe count, 2 sheets laid on imitation vomit ([2]; Day 7 at 25° C.): >10^6
Microbe count, 3 sheets laid on imitation vomit ([2]; Day 7 at 25° C.): >10^6
Microbe count, 4 sheets laid on imitation vomit ([2]; Day 7 at 25° C.): >10^6
Microbe count, 5 sheets laid on imitation vomit ([2]; Day 7 at 25° C.): >10^6
Microbe count, 6 sheets laid on imitation vomit ([2]; Day 7 at 25° C.): >10^6
Microbe count, 8 sheets laid on imitation vomit ([2]; Day 7 at 25° C.): 1.1 × 10^4
Microbe count, 10 sheets laid on imitation vomit ([2]; Day 7 at 25° C.): 7.1 × 10^2
Microbe count, 20 sheets laid on imitation vomit ([2]; Day 7 at 25° C.): <10
Microbe count, 30 sheets laid on imitation vomit ([2]; Day 7 at 25° C.): <10
Microbe count, 1 sheet laid on imitation vomit ([3]; Day 0 at 25° C.): <10
Microbe count, 2 sheets laid on imitation vomit ([3]; Day 0 at 25° C.): <10
Microbe count, 3 sheets laid on imitation vomit ([3]; Day 0 at 25° C.): <10
Microbe count, 4 sheets laid on imitation vomit ([3]; Day 0 at 25° C.): <10
Microbe count, 5 sheets laid on imitation vomit ([3]; Day 0 at 25° C.): <10
Microbe count, 6 sheets laid on imitation vomit ([3]; Day 0 at 25° C.): <10
Microbe count, 8 sheets laid on imitation vomit ([3]; Day 0 at 25° C.): <10
Microbe count, 10 sheets laid on imitation vomit ([3]; Day 0 at 25° C.): <10
Microbe count, 20 sheets laid on imitation vomit ([3]; Day 0 at 25° C.): <10
Microbe count, 30 sheets laid on imitation vomit ([3]; Day 0 at 25° C.): <10
Microbe count, 1 sheet laid on imitation vomit ([3]; Day 7 at 25° C.): >10^6
Microbe count, 2 sheets laid on imitation vomit ([3]; Day 7 at 25° C.): >10^6
Microbe count, 3 sheets laid on imitation vomit ([3]; Day 7 at 25° C.): >10^6
Microbe count, 4 sheets laid on imitation vomit ([3]; Day 7 at 25° C.): >10^6
Microbe count, 5 sheets laid on imitation vomit ([3]; Day 7 at 25° C.): >10^6
Microbe count, 6 sheets laid on imitation vomit ([3]; Day 7 at 25° C.): >10^6
Microbe count, 8 sheets laid on imitation vomit ([3]; Day 7 at 25° C.): >10^6
Microbe count, 10 sheets laid on imitation vomit ([3]; Day 7 at 25° C.): >10^6
Microbe count, 20 sheets laid on imitation vomit ([3]; Day 7 at 25° C.): >10^6
Microbe count, 30 sheets laid on imitation vomit ([3]; Day 7 at 25° C.): >10^6
microbes remaining, wiped 1 Time ([4]; stored at 25° C. Day 0): <10
microbes remaining, wiped 2 Times ([4]; stored at 25° C. Day 0): <10
microbes remaining, wiped 3 Times ([4]; stored at 25° C. Day 0): <10
microbes remaining, wiped 1 Time ([4]; stored at 25° C. Day 7): <10
microbes remaining, wiped 2 Times ([4]; stored at 25° C. Day 7): <10
microbes remaining, wiped 3 Times ([4]; stored at 25° C. Day 7): <10
Number of Times Wiped 1 Time (remaining microbes) ([5]; stored at 25° C. Day 0): <10
Number of Times Wiped 2 Times (remaining microbes) ([5]; stored at 25° C. Day 0): <10
Number of Times Wiped 3 Times (remaining microbes) ([5]; stored at 25° C. Day 0): <10
Number of Times Wiped 1 Time (remaining microbes) ([5]; stored at 25° C. Day 7): <10
Number of Times Wiped 2 Times (remaining microbes) ([5]; stored at 25° C. Day 7): <10
Number of Times Wiped 3 Times (remaining microbes) ([5]; stored at 25° C. Day 7): <10
Number of Times Wiped 1 Time (remaining microbes) ([6]; stored at 25° C. Day 0): <10
Number of Times Wiped 2 Times (remaining microbes) ([6]; stored at 25° C. Day 0): <10
Number of Times Wiped 3 Times (remaining microbes) ([6]; stored at 25° C. Day 0): <10
Number of Times Wiped 1 Time (remaining microbes) ([6]; stored at 25° C. Day 7): <10
Number of Times Wiped 2 Times (remaining microbes) ([6]; stored at 25° C. Day 7): <10
Number of Times Wiped 3 Times (remaining microbes) ([6]; stored at 25° C. Day 7): <10
Number of Times Wiped 1 Time (remaining microbes) ([7]; stored at 25° C. Day 0): <10
Number of Times Wiped 2 Times (remaining microbes) ([7]; stored at 25° C. Day 0): <10
Number of Times Wiped 3 Times (remaining microbes) ([7]; stored at 25° C. Day 0): <10
Number of Times Wiped 1 Time (remaining microbes) ([7]; stored at 25° C. Day 7): 8.8 × 10^3
Number of Times Wiped 2 Times (remaining microbes) ([7]; stored at 25° C. Day 7): 4.9 × 10^3
Number of Times Wiped 3 Times (remaining microbes) ([7]; stored at 25° C. Day 7): 3.0 × 10^3
microbes remaining, wiped 1 Time ([8]; stored at 25° C. Day 0): <10
microbes remaining, wiped 2 Times ([8]; stored at 25° C. Day 0): <10
microbes remaining, wiped 3 Times ([8]; stored at 25° C. Day 0): <10
microbes remaining, wiped 1 Time ([8]; stored at 25° C. Day 7): <10
microbes remaining, wiped 2 Times ([8]; stored at 25° C. Day 7): <10
microbes remaining, wiped 3 Times ([8]; stored at 25° C. Day 7): <10
